Results: patent US20240425479A1, “HALO-SUBSTITUTED AMINO AZA-HETEROARYL COMPOUNDS AS INHIBITORS OF THE HAEMATOPOIETIC PROGENITOR KINASE 1 (HPK1)” (priority 2021, published 2024)

Target: T1, Recombinant (1-346) HPK1 (h) (Homo sapiens, UniProt Q92918)
T1 construct: Recombinant (1-346) HPK1 (h) is incubated with 8 mM MOPS pH 7.0
T1 sequence (Q92918 1-346): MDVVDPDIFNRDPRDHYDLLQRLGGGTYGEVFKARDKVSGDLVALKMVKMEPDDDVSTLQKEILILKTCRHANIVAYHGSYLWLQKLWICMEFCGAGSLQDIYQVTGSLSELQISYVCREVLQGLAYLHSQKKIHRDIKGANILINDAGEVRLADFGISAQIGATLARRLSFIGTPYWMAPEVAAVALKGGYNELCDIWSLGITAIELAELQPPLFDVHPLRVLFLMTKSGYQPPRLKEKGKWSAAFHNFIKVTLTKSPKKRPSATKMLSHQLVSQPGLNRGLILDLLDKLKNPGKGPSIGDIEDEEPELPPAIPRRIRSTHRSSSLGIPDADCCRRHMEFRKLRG
Experiment: HPK1 human STE kinase enzymatic radiometric assay
Type: biochemical
Settings: read-out: HPK1 IC50 nM Range
How it was run: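 Compounds in 3-fold, 9-point serial dilution; kinase (residues 1-346) phosphorylates myelin basic protein (0.33 mg/mL) using [gamma-33P]-ATP at pH 7.0 (MOPS, EDTA, Mg acetate) for 40 min, room temperature. Acid-quenched mixture filtered onto P30 mats; incorporated radioactivity read by scintillation counting.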

IC50	Structure (SMILES)
11 to 100 nM	CN(C)Cc1cc(-c2nc(-c3ccc4c(=O)[nH]cc(F)c4c3)c(N)nc2F)c(F)c(F)c1N1CCOCC1 [Example I-263, 6-(3-amino-6-(5-((dimethylamino)methyl)-2,3-difluoro-4-morpholinophenyl)-5-fluoropyrazin-2-yl)-4-fluoroisoquinolin-1(2H)-one]
101 to 1000 nM	Cc1c[nH]c(=O)c2ccc(-c3nc(-c4cc(CN(C)C)c(N5CCOCC5)c(F)c4F)c(F)nc3N)cc12 [Example I-264, 6-(3-amino-6-(5-((dimethylamino)methyl)-2,3-difluoro-4-morpholinophenyl)-5-fluoropyrazin-2-yl)-4-methylisoquinolin-1(2H)-one]
0.1 to 10 nM	CN(C)Cc1cc(-c2nc(-c3ccc4c(=O)[nH]cc(F)c4c3)c(N)nc2F)cc(F)c1N1CCOCC1 [Example I-265, 6-(3-amino-6-(3-((dimethylamino)methyl)-5-fluoro-4-morpholinophenyl)-5-fluoropyrazin-2-yl)-4-fluoroisoquinolin-1(2H)-one]
0.1 to 10 nM	Cc1c[nH]c(=O)c2ccc(-c3nc(-c4cc(F)c(N5CCOCC5)c(CN(C)C)c4)c(F)nc3N)cc12 [Example I-266, 6-(3-amino-6-(3-((dimethylamino)methyl)-5-fluoro-4-morpholinophenyl)-5-fluoropyrazin-2-yl)-4-methylisoquinolin-1(2H)-one]
0.1 to 10 nM	CN(C)Cc1cc(-c2nc(-c3ccc4c(=O)[nH]cc(F)c4c3)c(N)nc2F)cc2c1OCCC2 [Example I-268, 6-(3-amino-6-(8-((dimethylamino)methyl)chroman-6-yl)-5-fluoropyrazin-2-yl)-4-fluoroisoquinolin-1(2H)-one]
0.1 to 10 nM	CN(C)Cc1cc(-c2nc(-c3ccc4c(=O)[nH]cc(F)c4c3)c(N)nc2F)cc2c1OCCO2 [Example I-269, 6-(3-amino-6-(8-((dimethylamino)methyl)-2,3-dihydrobenzo[b][1,4]dioxin-6-yl)-5-fluoropyrazin-2-yl)-4-fluoroisoquinolin-1(2H)-one]
0.1 to 10 nM	CN(C)Cc1cc(-c2nc(-c3ccc4c(=O)[nH]cc(F)c4c3)c(N)nc2F)ccc1OC(F)F [Example I-270, 6-(3-amino-6-(4-(difluoromethoxy)-3-((dimethylamino)methyl)phenyl)-5-fluoropyrazin-2-yl)-4-fluoroisoquinolin-1(2H)-one]
101 to 1000 nM	CC(C)(N)c1cc(-c2nc(-c3ccc4c(c3)CCNC4=O)c(N)nc2F)ccc1F [Example I-271, 6-(3-amino-6-(3-(2-aminopropan-2-yl)-4-fluorophenyl)-5-fluoropyrazin-2-yl)-3,4-dihydroisoquinolin-1(2H)-one]
11 to 100 nM	CN(C)Cc1cc(-c2nc(-c3ccc4c(c3)CCNC4=O)c(N)nc2F)ccc1F [Example I-272, 6-(3-amino-6-(3-((dimethylamino)methyl)-4-fluorophenyl)-5-fluoropyrazin-2-yl)-3,4-dihydroisoquinolin-1(2H)-one]
11 to 100 nM	CN(C)Cc1cc(-c2nc(-c3cc4c(cc3F)C(=O)NCC4)c(N)nc2F)ccc1F [Example I-273, 6-(3-amino-6-(3-((dimethylamino)methyl)-4-fluorophenyl)-5-fluoropyrazin-2-yl)-7-fluoro-3,4-dihydroisoquinolin-1(2H)-one]
101 to 1000 nM	CN(C)Cc1cc(-c2nc(-c3cc(F)c4c(c3)CCNC4=O)c(N)nc2F)ccc1F [Example I-274, 6-(3-amino-6-(3-((dimethylamino)methyl)-4-fluorophenyl)-5-fluoropyrazin-2-yl)-8-fluoro-3,4-dihydroisoquinolin-1(2H)-one]
11 to 100 nM	Cc1c[nH]c(=O)c2ccc(-c3nc(-c4ccc(F)c(CN(C)C)c4)c(F)nc3N)cc12 [Example I-275, 6-(3-amino-6-(3-((dimethylamino)methyl)-4-fluorophenyl)-5-fluoropyrazin-2-yl)-4-methylisoquinolin-1(2H)-one]
11 to 100 nM	CN(C)Cc1cc(-c2nc(-c3ccc4c(=O)[nH]cc(F)c4c3)c(N)nc2F)ccc1F [Example I-276, 6-(3-amino-6-(3-((dimethylamino)methyl)-4-fluorophenyl)-5-fluoropyrazin-2-yl)-4-fluoroisoquinolin-1(2H)-one]
